{"source": "paper PMC10535624", "about": "“Curcuminoid Chalcones: Synthesis, Stability, and New Neuroprotective and Sonosensitising Activities” (Pharmaceuticals, 2023)", "key": {"[1]": {"molecular_target": "T1, COX-2 (Homo sapiens, UniProt P35354)", "T1 sequence (P35354 18-604)": "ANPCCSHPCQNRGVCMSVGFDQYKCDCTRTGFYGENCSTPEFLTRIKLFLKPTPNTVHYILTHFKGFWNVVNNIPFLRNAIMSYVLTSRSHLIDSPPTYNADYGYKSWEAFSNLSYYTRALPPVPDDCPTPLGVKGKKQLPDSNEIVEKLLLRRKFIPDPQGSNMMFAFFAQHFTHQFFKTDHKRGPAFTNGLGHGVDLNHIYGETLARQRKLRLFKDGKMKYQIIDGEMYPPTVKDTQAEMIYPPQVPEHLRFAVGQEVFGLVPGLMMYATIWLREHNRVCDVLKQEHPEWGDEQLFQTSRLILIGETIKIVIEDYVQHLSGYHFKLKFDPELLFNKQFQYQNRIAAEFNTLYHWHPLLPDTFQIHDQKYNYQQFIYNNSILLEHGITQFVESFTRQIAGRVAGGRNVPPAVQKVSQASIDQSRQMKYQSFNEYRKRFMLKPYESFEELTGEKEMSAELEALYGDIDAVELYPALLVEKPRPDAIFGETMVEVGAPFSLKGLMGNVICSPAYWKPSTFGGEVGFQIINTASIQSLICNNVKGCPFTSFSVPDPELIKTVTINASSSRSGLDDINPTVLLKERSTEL", "test": "Effect on COX-2 activity", "format": "biochemical", "settings": "samples 3 mM/dm^3 in DMSO, 0.02 mL; mean ± SEM, n = 3"}, "[2]": {"test_system": "glutathione peroxidase (GPx)", "test": "Effect on GPx activity", "format": "biochemical", "settings": "samples 3 mM/dm^3 in DMSO; mean ± SEM, n = 3", "method": "(§1) We decided to extend the study by measuring the compounds’ ability to inhibit glutathione reductase (GR) and GPx activities, the human cells’ main endogenous enzymatic defence systems. Therefore, we checked the influence of some curcuminoid chalcones on GR and GPx using in vitro spectroscopic methods (Table 2). Moreover, the effects of curcuminoid chalcones on CAT activity were estimated (Table 2).\n(§2) The samples were dissolved in DMSO (Sigma D4540) to obtain a concentration of 3 mM/dm^3.\n(§3) The analyses were performed strictly as described by Studzińska-Sroka et al.."}, "[3]": {"molecular_target": "T2, glutathione reductase (GR) (Homo sapiens, UniProt P00390)", "T2 sequence (P00390 44-522)": "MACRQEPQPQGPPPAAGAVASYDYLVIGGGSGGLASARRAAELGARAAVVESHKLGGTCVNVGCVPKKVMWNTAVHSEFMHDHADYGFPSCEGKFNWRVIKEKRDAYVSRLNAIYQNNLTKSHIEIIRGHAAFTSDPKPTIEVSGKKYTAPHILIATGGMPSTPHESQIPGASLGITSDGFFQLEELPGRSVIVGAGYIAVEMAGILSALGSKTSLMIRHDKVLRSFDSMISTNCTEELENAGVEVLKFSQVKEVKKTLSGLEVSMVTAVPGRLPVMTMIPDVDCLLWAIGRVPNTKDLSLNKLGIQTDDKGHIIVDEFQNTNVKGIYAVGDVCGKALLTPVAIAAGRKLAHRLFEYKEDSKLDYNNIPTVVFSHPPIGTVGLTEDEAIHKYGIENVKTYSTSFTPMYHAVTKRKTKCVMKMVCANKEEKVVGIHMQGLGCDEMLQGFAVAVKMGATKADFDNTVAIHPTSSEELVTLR", "test": "Effect on GR activity", "format": "biochemical", "settings": "samples 3 mM/dm^3 in DMSO; mean ± SEM, n = 3", "method": "as §1, §2, §3"}, "[4]": {"molecular_target": "BChE (Homo sapiens, UniProt P06276)", "sequence (P06276 29-602, species assumed)": "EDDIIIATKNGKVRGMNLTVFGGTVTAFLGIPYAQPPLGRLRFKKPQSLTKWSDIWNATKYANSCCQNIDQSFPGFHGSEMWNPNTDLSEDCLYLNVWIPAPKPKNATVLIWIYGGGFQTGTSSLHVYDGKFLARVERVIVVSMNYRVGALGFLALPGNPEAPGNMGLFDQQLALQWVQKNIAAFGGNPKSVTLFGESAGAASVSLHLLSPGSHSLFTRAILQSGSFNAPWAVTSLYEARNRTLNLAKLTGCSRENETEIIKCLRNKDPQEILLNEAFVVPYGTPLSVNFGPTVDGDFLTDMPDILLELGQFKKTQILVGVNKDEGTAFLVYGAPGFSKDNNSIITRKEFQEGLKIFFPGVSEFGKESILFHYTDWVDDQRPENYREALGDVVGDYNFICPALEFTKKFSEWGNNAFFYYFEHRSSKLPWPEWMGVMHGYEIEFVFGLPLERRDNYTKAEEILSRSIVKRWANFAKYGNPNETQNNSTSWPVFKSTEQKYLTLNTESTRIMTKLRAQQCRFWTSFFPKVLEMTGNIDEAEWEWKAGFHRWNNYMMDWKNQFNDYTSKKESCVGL", "format": "biochemical", "settings": "samples 3 mM/dm^3 in DMSO, 0.035 mL; mean ± SEM, n = 3"}, "[5]": {"test": "Stress test: oxidative degradation (RP-HPLC)", "format": "physicochemical", "settings": "for ICH Classification: oxidising environment", "method": "Stock solutions of the test substances (2 or 6) were prepared by dissolving 1 mg of each test substance in 1.5 mL of a mixture of DMSO and MeOH (1:6, v/v). Then, 2 mL solutions of compounds 2 and 6 were prepared at ~30 μg/mL in a hydrogen peroxide solution (1, 3, and 10%). The solutions were placed in dark glass vials and encapsulated, and after an appropriate time (Table 1) the samples were diluted with methanol (1:1, v/v) and transferred to the chromatographic column."}, "[6]": {"test": "Photostability in the solutions (RP-HPLC)", "format": "physicochemical", "settings": "MeOH solution; for % Decomposition / Ct: 1.2 × 10^6 lux·h, 22 h; for ICH Classification: light", "method": "However, as a result of the action of light, both compounds degraded completely (Table 6, Figure 12). The study was conducted in methanol solutions, irradiated in quartz cuvettes, and in solutions protected from light (aluminium foil). […] During irradiation, the temperature in the Suntest chamber was 35 °C. It was, therefore, concluded that both compounds are photolabile in solutions. […] The visible peaks with Rt values of 6.3 (Figure 12a,c) and 4.4 min (Figure 12b,d) were impurities of compounds 2 and 6, respectively.\nStock solutions of the test substances (2 or 6) were prepared by dissolving 1 mg of each test substance in 1.5 mL of a mixture of DMSO and MeOH (1:6, v/v). Then, 5 mL solutions of the tested compounds (c ~ 15 µg/mL) in MeOH were prepared. […] Each of the samples (protected and irradiated) was transferred to the chromatographic column. Samples before irradiation were also subjected to chromatographic analysis (t = 0) (Table 2)."}, "[7]": {"test": "Hydroxyl radical antioxidant capacity (HORAC)", "settings": "samples 1 mg/mL DMSO; mean ± SEM, n = 3"}, "[8]": {"test": "Photostability in the solid state (IR spectra of KBr tablets)", "settings": "for ICH Classification: light, solid phase; for Compatibility of the IR spectrum with the spectrum before irradiation: solid phase (KBr tablet)"}, "[9]": {"settings": "protected from light (aluminium foil), 35 °C"}, "[10]": {"settings": "not protected, 1.2 × 10^6 lux·h"}, "[11]": {"settings": "not protected, 6.0 × 10^6 lux·h"}}, "note": "Values joined by “and” are separate entries in the source; they are usually repeats but may differ in a detail not shown here. Identical values can stand only once.", "data": [{"molecule": "COc1cc(C=CC(=O)c2ccccc2)ccc1OC(=O)C(C)c1ccc(CC(C)C)cc1", "note": "(stereo not drawn) [Compound 2, 2-Methoxy-4-(3-oxo-3-phenylprop-1-en-1-yl)phenyl-2-(4-isobutylphenyl)-propionate]", "values": [{"measurement": "COX-2 Inhibition (%)", "setting": "[1]", "result": "-"}, {"measurement": "GPx Inhibition (%)", "setting": "[2]", "result": "17.0 ± 3.4", "unit": "%"}, {"measurement": "GPx activity (NADPH consumption rate)", "setting": "[2]", "result": "33.8 ± 6.8", "unit": "nmol Depleted NADPH/min"}, {"measurement": "GR Inhibition (%)", "setting": "[3]", "result": "27.1 ± 4.0", "unit": "%"}, {"measurement": "GR activity (NADPH consumption rate)", "setting": "[3]", "result": "1018 ± 150", "unit": "nmol Depleted NADPH/min"}, {"measurement": "BChE % (inhibition)", "setting": "[4]", "result": "89.7 ± 4.8", "unit": "%"}, {"measurement": "BChE, Equivalent Concentration of Reference Compound Magniflorine", "setting": "[4]", "result": "0.35 ± 0.02", "unit": "µg/mL"}, {"measurement": "BChE, Equivalent Concentration of Reference Compound Rivastigmine", "setting": "[4]", "result": "0.26 ± 0.01", "unit": "µg/mL"}, {"measurement": "% Decomposition", "setting": "[5]; H2O2 1%, 30 min", "result": "<0.5", "unit": "%"}, {"measurement": "Ct", "setting": "[5]; H2O2 1%, 30 min", "result": 29.9, "unit": "µg/mL"}, {"measurement": "% Decomposition", "setting": "[5]; H2O2 3%, 24 h", "result": "<0.5", "unit": "%"}, {"measurement": "Ct", "setting": "[5]; H2O2 3%, 24 h", "result": 29.8, "unit": "µg/mL"}, {"measurement": "% Decomposition", "setting": "[5]; H2O2 10%, 24 h", "result": "<0.5", "unit": "%"}, {"measurement": "Ct", "setting": "[5]; H2O2 10%, 24 h", "result": 30.1, "unit": "µg/mL"}, {"measurement": "ICH Classification", "setting": "[5]; H2O2 10%, 24 h", "result": "practically stable"}, {"measurement": "% Decomposition", "setting": "[6]; not protected", "result": 100, "unit": "%"}, {"measurement": "Ct", "setting": "[6]; not protected", "result": 0, "unit": "µg/mL"}, {"measurement": "% Decomposition", "setting": "[6]; [9]", "result": "68% and 68.2%"}, {"measurement": "Ct", "setting": "[6]; [9]", "result": 4.8, "unit": "µg/mL"}, {"measurement": "ICH Classification", "setting": "[6]", "result": "Photolabile"}, {"measurement": "HORAC, Gallic Acid Equivalents", "setting": "[7]", "result": "24.2 ± 2.3", "unit": "µg/mL"}, {"measurement": "ICH Classification", "setting": "[8]", "result": "Photolabile"}, {"measurement": "Compatibility of the IR spectrum with the spectrum before irradiation", "setting": "[8]; [10]", "result": 0.9404}, {"measurement": "Compatibility of the IR spectrum with the spectrum before irradiation", "setting": "[8]; [11]", "result": 0.9017}, {"measurement": "Compatibility of the IR spectrum with the spectrum before irradiation", "setting": "[8]; protected, 1.2 × 10^6 lux·h", "result": 0.9995}, {"measurement": "Compatibility of the IR spectrum with the spectrum before irradiation", "setting": "[8]; protected, 6.0 × 10^6 lux·h", "result": 0.9994}]}, {"molecule": "COc1ccc(C=CC(=O)c2ccccc2)cc1OC(=O)C(C)c1ccc(CC(C)C)cc1", "note": "(stereo not drawn) [Compound 6, 2-Methoxy-5-(3-oxo-3-phenylprop-1-en-1-yl)phenyl-2-(4-isobutylphenyl)-propionate]", "values": [{"measurement": "COX-2 Inhibition (%)", "setting": "[1]", "result": "-"}, {"measurement": "GPx Inhibition (%)", "setting": "[2]", "result": "17.4 ± 1.7", "unit": "%"}, {"measurement": "GPx activity (NADPH consumption rate)", "setting": "[2]", "result": "34.6 ± 3.3", "unit": "nmol Depleted NADPH/min"}, {"measurement": "GR Inhibition (%)", "setting": "[3]", "result": "did not inhibit and -"}, {"measurement": "BChE % (inhibition)", "setting": "[4]", "result": "77.3 ± 5.2", "unit": "%"}, {"measurement": "BChE, Equivalent Concentration of Reference Compound Magniflorine", "setting": "[4]", "result": "0.30 ± 0.02", "unit": "µg/mL"}, {"measurement": "BChE, Equivalent Concentration of Reference Compound Rivastigmine", "setting": "[4]", "result": "0.22 ± 0.02", "unit": "µg/mL"}, {"measurement": "% Decomposition", "setting": "[5]; H2O2 1%, 30 min", "result": "<0.5", "unit": "%"}, {"measurement": "Ct", "setting": "[5]; H2O2 1%, 30 min", "result": 29.7, "unit": "µg/mL"}, {"measurement": "% Decomposition", "setting": "[5]; H2O2 3%, 24 h", "result": "<0.5", "unit": "%"}, {"measurement": "Ct", "setting": "[5]; H2O2 3%, 24 h", "result": 29.9, "unit": "µg/mL"}, {"measurement": "% Decomposition", "setting": "[5]; H2O2 10%, 24 h", "result": "<0.5", "unit": "%"}, {"measurement": "Ct", "setting": "[5]; H2O2 10%, 24 h", "result": 30.0, "unit": "µg/mL"}, {"measurement": "ICH Classification", "setting": "[5]; H2O2 10%, 24 h", "result": "practically stable"}, {"measurement": "% Decomposition", "setting": "[6]; not protected", "result": 100, "unit": "%"}, {"measurement": "Ct", "setting": "[6]; not protected", "result": 0, "unit": "µg/mL"}, {"measurement": "% Decomposition", "setting": "[6]; [9]", "result": 7.9, "unit": "%"}, {"measurement": "Ct", "setting": "[6]; [9]", "result": 13.8, "unit": "µg/mL"}, {"measurement": "ICH Classification", "setting": "[6]", "result": "Photolabile"}, {"measurement": "HORAC, Gallic Acid Equivalents", "setting": "[7]", "result": "20.4 ± 3.0", "unit": "µg/mL"}, {"measurement": "ICH Classification", "setting": "[8]", "result": "Photolabile"}, {"measurement": "Compatibility of the IR spectrum with the spectrum before irradiation", "setting": "[8]; [10]", "result": 0.9962}, {"measurement": "Compatibility of the IR spectrum with the spectrum before irradiation", "setting": "[8]; [11]", "result": 0.9752}, {"measurement": "Compatibility of the IR spectrum with the spectrum before irradiation", "setting": "[8]; protected, 1.2 × 10^6 lux·h", "result": 0.9997}, {"measurement": "Compatibility of the IR spectrum with the spectrum before irradiation", "setting": "[8]; protected, 6.0 × 10^6 lux·h", "result": 0.9993}]}]}
